Assay [1] deals with T1, Adrenergic receptor alpha-2 (Rattus norvegicus, UniProt P22086+P19328+P22909).
T1 sequence (P22086 whole entry): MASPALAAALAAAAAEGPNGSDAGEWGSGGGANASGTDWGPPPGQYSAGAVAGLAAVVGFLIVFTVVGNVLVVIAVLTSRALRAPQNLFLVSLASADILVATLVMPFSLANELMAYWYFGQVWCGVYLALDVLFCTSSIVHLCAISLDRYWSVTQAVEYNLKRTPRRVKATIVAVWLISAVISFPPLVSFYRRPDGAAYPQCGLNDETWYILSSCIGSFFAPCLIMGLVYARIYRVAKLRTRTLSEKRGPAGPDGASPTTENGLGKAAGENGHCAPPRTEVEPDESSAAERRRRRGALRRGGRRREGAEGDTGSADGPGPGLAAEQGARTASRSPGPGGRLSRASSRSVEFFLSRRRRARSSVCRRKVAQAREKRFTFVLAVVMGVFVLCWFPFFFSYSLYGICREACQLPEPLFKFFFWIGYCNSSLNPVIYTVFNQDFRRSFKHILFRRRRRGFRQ
T1 sequence (P19328 whole entry): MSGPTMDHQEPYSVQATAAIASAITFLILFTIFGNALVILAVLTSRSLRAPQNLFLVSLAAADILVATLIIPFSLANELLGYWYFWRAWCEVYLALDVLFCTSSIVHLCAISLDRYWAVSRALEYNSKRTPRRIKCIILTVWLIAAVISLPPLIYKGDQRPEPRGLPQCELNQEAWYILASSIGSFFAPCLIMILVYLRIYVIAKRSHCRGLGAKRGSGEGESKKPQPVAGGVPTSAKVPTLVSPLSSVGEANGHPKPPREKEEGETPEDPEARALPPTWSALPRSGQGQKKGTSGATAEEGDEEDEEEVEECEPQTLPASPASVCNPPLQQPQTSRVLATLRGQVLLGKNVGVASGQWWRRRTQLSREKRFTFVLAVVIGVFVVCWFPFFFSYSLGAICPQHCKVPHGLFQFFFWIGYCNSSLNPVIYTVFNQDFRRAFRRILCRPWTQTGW
T1 sequence (P22909 whole entry): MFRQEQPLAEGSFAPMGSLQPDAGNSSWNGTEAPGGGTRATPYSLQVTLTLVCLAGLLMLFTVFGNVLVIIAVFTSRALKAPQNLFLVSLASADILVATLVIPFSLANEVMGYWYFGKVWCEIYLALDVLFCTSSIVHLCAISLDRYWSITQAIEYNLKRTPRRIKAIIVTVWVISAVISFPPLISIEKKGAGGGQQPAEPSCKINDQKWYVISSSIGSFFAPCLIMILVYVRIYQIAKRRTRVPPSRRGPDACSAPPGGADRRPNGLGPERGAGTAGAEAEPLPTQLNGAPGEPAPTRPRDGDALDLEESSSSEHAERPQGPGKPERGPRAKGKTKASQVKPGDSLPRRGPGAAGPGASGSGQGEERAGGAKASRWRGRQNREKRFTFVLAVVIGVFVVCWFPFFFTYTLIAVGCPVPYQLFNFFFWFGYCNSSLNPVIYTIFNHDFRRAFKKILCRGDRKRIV
The assay can be described thus: Binding affinity towards alpha-2 adrenergic receptor in rat cortex membrane using [3H]rauwolscine radioligand. It is filed as cell membranes.

In assay [2] the target is Adrenergic receptor alpha-2 (Rattus norvegicus) (UniProt P22086+P19328+P22909). The assay can be described thus: Ratio of binding affinity towards Alpha-2 and alpha-1 adrenergic receptor. It is filed as protein assay.
Assay [3] concerns the target T2, Adrenergic receptor alpha-1 (Rattus norvegicus, UniProt P15823+P23944+P43140).
T2 sequence (P15823 whole entry): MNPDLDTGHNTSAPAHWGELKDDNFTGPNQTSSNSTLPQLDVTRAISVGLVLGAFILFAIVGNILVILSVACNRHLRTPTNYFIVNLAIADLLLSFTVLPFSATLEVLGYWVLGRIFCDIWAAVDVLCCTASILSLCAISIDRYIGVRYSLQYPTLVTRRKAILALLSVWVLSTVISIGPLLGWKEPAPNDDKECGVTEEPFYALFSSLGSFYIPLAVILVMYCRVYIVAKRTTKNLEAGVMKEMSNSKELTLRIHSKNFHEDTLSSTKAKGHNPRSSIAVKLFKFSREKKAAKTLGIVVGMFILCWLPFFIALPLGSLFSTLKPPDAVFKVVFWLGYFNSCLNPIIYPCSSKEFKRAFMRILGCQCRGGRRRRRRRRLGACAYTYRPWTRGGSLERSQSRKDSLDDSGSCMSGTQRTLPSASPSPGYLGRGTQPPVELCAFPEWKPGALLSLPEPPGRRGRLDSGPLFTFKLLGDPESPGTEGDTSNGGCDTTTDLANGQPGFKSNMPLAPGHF
T2 sequence (P23944 whole entry): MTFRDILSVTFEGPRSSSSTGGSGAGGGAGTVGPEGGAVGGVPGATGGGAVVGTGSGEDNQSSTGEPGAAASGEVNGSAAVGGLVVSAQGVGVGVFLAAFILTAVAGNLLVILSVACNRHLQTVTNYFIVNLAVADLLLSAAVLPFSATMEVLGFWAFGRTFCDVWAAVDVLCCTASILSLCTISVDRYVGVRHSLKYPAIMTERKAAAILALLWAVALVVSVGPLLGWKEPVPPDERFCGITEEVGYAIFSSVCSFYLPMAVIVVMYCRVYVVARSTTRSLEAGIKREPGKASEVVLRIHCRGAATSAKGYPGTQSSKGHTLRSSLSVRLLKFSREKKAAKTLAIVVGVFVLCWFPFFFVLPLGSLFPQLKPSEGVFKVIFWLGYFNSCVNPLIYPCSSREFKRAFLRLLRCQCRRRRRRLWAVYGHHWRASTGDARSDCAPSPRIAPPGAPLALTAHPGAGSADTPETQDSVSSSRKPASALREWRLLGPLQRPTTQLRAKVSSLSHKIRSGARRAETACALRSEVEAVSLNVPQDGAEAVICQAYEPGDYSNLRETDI
T2 sequence (P43140 whole entry): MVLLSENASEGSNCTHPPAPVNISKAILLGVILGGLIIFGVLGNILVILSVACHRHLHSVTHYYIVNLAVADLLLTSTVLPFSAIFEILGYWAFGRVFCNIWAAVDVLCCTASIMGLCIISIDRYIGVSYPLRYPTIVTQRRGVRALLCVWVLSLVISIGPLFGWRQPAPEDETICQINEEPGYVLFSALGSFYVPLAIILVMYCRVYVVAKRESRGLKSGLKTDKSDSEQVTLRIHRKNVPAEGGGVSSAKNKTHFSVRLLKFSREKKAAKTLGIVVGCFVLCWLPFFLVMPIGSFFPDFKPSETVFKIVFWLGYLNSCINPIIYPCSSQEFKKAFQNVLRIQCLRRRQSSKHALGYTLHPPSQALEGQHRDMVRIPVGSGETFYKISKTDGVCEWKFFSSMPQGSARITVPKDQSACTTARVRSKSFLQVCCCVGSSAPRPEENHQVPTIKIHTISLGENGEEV
In words: Binding affinity towards alpha-1 adrenergic receptor in rat cortex membrane using [3H]-prazosin radioligand. The assay is classed as cell membranes.

SMILES strings stand for the structures.

As for `COc1ccccc1OCCN1CCN(c2cnn(CCCCCCN3CCN(c4ccccc4OC)CC3)c(=O)c2Cl)CC1`, the Ki (commonly a dissociation constant, usually derived from enzyme kinetics or from competition with a known ligand) in assay [1] stood at 0.0035 µM; in assay [3], 0.0015 µM. Moreover, the Ratio in assay [2] was 2.3.

For `COc1ccccc1OCCN1CCN(c2ccc(=O)n(CCN3CCN(c4ccccc4Cl)CC3)n2)CC1`, the figures for the Ki in assay [1] and in assay [3] were 0.37 µM and 0.018 µM, respectively. The Ratio in assay [2] was 20.5.

For the compound `O=C(c1ccco1)N1CCN(c2cnn(CCN3CCN(c4ccccc4Cl)CC3)c(=O)c2Cl)CC1`, the results for the Ki in assay [1] and in assay [3] were 0.15 µM and 0.0039 µM, respectively. In assay [2], the Ratio worked out at 38.4.

Consider `COc1ccccc1OCCN1CCN(c2ccc(=O)n(CCN3CCN(c4ccccc4OC)CC3)n2)CC1`, for which the Ki stood at 1.261 µM in assay [1] and 0.038 µM in assay [3]. The Ratio in assay [2] was found to be 33.2.

As to `COc1ccccc1N1CCN(CCCCCCn2nc(N3CCN(C(=O)c4ccco4)CC3)ccc2=O)CC1`, the Ki in assay [1] amounted to 0.1 µM; in assay [3] it was 0.0178 µM. In addition, the Ratio in assay [2] was found to be 5.6.

Regarding `COc1ccccc1OCCN1CCN(c2ccc(=O)n(CCCN3CCN(c4ccccc4Cl)CC3)n2)CC1`, the figures for the Ki in assay [1] and in assay [3] were 0.316 µM and 0.0068 µM, respectively. The Ratio in assay [2] was 46.5.

For `COc1ccccc1OCCN1CCN(c2cnn(CCCCCCN3CCN(c4ccccc4Cl)CC3)c(=O)c2Cl)CC1`, the Ki in assay [1] was determined as 0.0252 µM; in assay [3] it was 0.0042 µM. The Ratio in assay [2] is 6.

Take `COc1ccccc1OCCN1CCN(c2ccc(=O)n(CCCCCCCN3CCN(c4ccccc4OC)CC3)n2)CC1`: the Ki came out at 0.0458 µM in assay [1] and 0.0023 µM in assay [3]. The Ratio in assay [2] worked out at 20.

For the compound `O=C(c1ccco1)N1CCN(c2ccc(=O)n(CCCCCCCN3CCN(c4ccccc4Cl)CC3)n2)CC1`, the Ki is 0.0235 µM in assay [1] and 0.0056 µM in assay [3]. In addition, the Ratio in assay [2] is 4.2.

For the compound `COc1ccccc1OCCN1CCN(c2ccc(=O)n(CCCCN3CCN(c4ccccc4OC)CC3)n2)CC1`, the Ki in assay [1] was determined as 0.062 µM; in assay [3], 0.0006 µM. The Ratio in assay [2] turned out to be 103.

With `COc1ccccc1N1CCN(CCCCn2nc(N3CCN(C(=O)c4ccco4)CC3)ccc2=O)CC1`, the Ki in assay [1] was found to be 0.79 µM; in assay [3] it was 0.18 µM. Further, the Ratio in assay [2] was found to be 4.4.

Turning to `O=C(c1ccco1)N1CCN(c2cnn(CCCCCCN3CCN(c4ccccc4Cl)CC3)c(=O)c2Cl)CC1`, the Ki in assay [1] was determined as 0.066 µM; in assay [3], 0.0057 µM. In addition, in assay [2], the Ratio was found to be 11.6.

Consider `O=C(c1ccco1)N1CCN(c2ccc(=O)n(CCCCCCN3CCN(c4ccccc4Cl)CC3)n2)CC1`, for which the Ki is 0.0237 µM in assay [1] and 0.0059 µM in assay [3]. Further, the Ratio in assay [2] is 4.

In the case of `O=C(c1ccco1)N1CCN(c2cnn(CCCN3CCN(c4ccccc4Cl)CC3)c(=O)c2Cl)CC1`, the Ki in assay [1] was determined as 0.085 µM; in assay [3], 0.0035 µM. Further, in assay [2], the Ratio is 24.3.

Consider `COc1ccccc1OCCN1CCN(c2ccc(=O)n(CCCCN3CCN(c4ccccc4Cl)CC3)n2)CC1`, for which the Ki came out at 0.0694 µM in assay [1] and 0.0008 µM in assay [3]. In assay [2], the Ratio stood at 86.7.

In assay [3], `COc1ccc(Cl)cc1N1CCN(CCn2nc(-c3ccccc3)c(C(C)=O)c(N)c2=O)CC1` registered a Ki of 0.0427 µM.

On to `COc1ccccc1OCCN1CCN(c2ccc(=O)n(CCCCCCN3CCN(c4ccccc4Cl)CC3)n2)CC1`, for which the Ki in assay [1] stood at 0.1388 µM; in assay [3], 0.0084 µM. Also, in assay [2], the Ratio amounted to 16.5.

The compound `COc1ccccc1N1CCN(CCn2nc(-c3ccccc3)c3c(C)onc3c2=O)CC1` yielded a Ki in assay [3] of 0.147 µM.

In the case of `COc1ccc(Cl)cc1N1CCN(CCCn2nc(-c3ccccc3)c3c(C)onc3c2=O)CC1`, the Ki in assay [3] stood at 0.0079 µM.

As for `COc1ccccc1N1CCN(CCCCCCCn2nc(N3CCN(C(=O)c4ccco4)CC3)ccc2=O)CC1`, the Ki came to 0.096 µM in assay [1] and 0.0547 µM in assay [3]. Besides, in assay [2], the Ratio came out at 1.7.

Take `O=C(c1ccco1)N1CCN(c2ccc(=O)n(CCCCN3CCN(c4ccccc4Cl)CC3)n2)CC1`: the Ki in assay [1] was found to be 0.024 µM; in assay [3] it was 0.0079 µM. Besides, the Ratio in assay [2] stood at 3.

`COc1ccccc1OCCN1CCN(c2cnn(CCN3CCN(c4ccccc4Cl)CC3)c(=O)c2Cl)CC1`: the results for the Ki in assay [1] and in assay [3] were 0.2923 µM and 0.0588 µM, respectively. Further, the Ratio in assay [2] is 5.

As to `COc1ccccc1N1CCN(CCCCCCn2ncc(N3CCN(C(=O)c4ccco4)CC3)c(Cl)c2=O)CC1`, the Ki worked out at 0.0245 µM in assay [1] and 0.0041 µM in assay [3]. The Ratio in assay [2] turned out to be 6.

As to `COc1ccccc1N1CCN(CCn2ncc(N3CCN(C(=O)c4ccco4)CC3)c(Cl)c2=O)CC1`, the Ki worked out at 0.44 µM in assay [1] and 0.033 µM in assay [3]. In assay [2], the Ratio came out at 13.3.

On to `COc1ccccc1N1CCN(CCn2nc(N3CCN(C(=O)c4ccco4)CC3)ccc2=O)CC1`, for which the Ki in assay [3] was 0.0945 µM.

In the case of `COc1ccccc1N1CCN(Cn2nc(-c3ccccc3)c3c(C)onc3c2=O)CC1`, the Ki in assay [3] worked out at 2.308 µM.

The compound `COc1ccccc1N1CCN(Cn2nc(-c3ccccc3)c(C(C)=O)c(N)c2=O)CC1` gave a Ki in assay [3] of 2.395 µM.

The compound `COc1ccccc1N1CCN(CCCn2nc(-c3ccccc3)c(C(C)=O)c(N)c2=O)CC1` returned a Ki in assay [3] of 0.0467 µM.

With `COc1ccccc1N1CCN(CC(=O)c2c(-c3ccccc3)nn(C)c(=O)c2N)CC1`, in assay [3], the Ki is 0.516 µM. Against the preceding compound, the Ki is about 11-fold higher.

Turning to `COc1ccc(Cl)cc1N1CCN(CCn2nc(-c3ccccc3)c3c(C)onc3c2=O)CC1`, the Ki in assay [3] was 0.0156 µM.

The values are drawn from ChEMBL document CHEMBL1134688, “Synthesis, biological evaluation, and pharmacophore generation of new pyridazinone derivatives with affinity toward alpha(1)- and alpha(2)-adrenoceptors” (J Med Chem, 2001).
